Test results published in patent publication US20220162167A1, “SUBSTITUTED BICYCLIC AND TETRACYCLIC QUINONES AND USE THEREOF AS ANTI-CANCER AGENTS” (THE REGENTS OF THE UNIVERSITY OF MICHIGAN, priority 2019, published 2022).

What was measured:
Assay type in all cases: cell-based
SK-MEL-5 = assay: NCI60 growth inhibition, SK-MEL-5; details: Melanoma
Description: (§1) Representative compounds were tested in 60 cell lines (NCI60) at the National Cancer Institute, Developmental Therapeutics Program.
(§2) Representative compounds were tested in a panel of 60 cancer cells (NCI 60) at the National Cancer Institute. Growth inhibition are shown in table 2, table 3, table 4, table 5, and FIG. 1, FIG. 2, FIG. 3, FIG. 4, FIG. 5.

EKVX = assay: NCI60 growth inhibition, EKVX; details: Non-Small Cell Lung Cancer
Description: as §1, §2

TK-10 = assay: NCI60 growth inhibition, TK-10; details: Renal Cancer
Description: as §1, §2

HS 578T = assay: NCI60 growth inhibition, HS 578T; details: Breast Cancer
Description: as §1, §2

M14 = assay: NCI60 growth inhibition, M14; details: Melanoma
Description: as §1, §2

HCT-116 = assay: NCI60 growth inhibition, HCT-116; details: Colon Cancer
Description: as §1, §2

COLO 205 = assay: NCI60 growth inhibition, COLO 205; details: Colon Cancer
Description: as §1, §2

HOP-62 = assay: NCI60 growth inhibition, HOP-62; details: Non-Small Cell Lung Cancer; also: test concentration or dose not given here
Description: as §1, §2

MDA-MB-468 = assay: NCI60 growth inhibition, MDA-MB-468; details: Breast Cancer; also: test concentration or dose not given here
Description: as §1, §2

MDA-MB-435 = assay: NCI60 growth inhibition, MDA-MB-435; details: Melanoma
Description: as §1, §2

HCT-15 = assay: NCI60 growth inhibition, HCT-15; details: Colon Cancer; also: test concentration or dose not given here
Description: as §1, §2

SK-MEL-28 = assay: NCI60 growth inhibition, SK-MEL-28; details: Melanoma
Description: as §1, §2

U251 = assay: NCI60 growth inhibition, U251; details: CNS Cancer
Description: as §1, §2

SR = assay: NCI60 growth inhibition, SR; details: Leukemia
Description: as §1, §2

NCI-H226 = assay: NCI60 growth inhibition, NCI-H226; details: Non-Small Cell Lung Cancer; also: test concentration or dose not given here
Description: as §1, §2

CAKI-1 = assay: NCI60 growth inhibition, CAKI-1; details: Renal Cancer; also: test concentration or dose not given here
Description: as §1, §2

HT29 = assay: NCI60 growth inhibition, HT29; details: Colon Cancer
Description: as §1, §2

HL-60(TB) = assay: NCI60 growth inhibition, HL-60(TB); details: Leukemia
Description: as §1, §2

SF-539 = assay: NCI60 growth inhibition, SF-539; details: CNS Cancer
Description: as §1, §2

SNB-19 = assay: NCI60 growth inhibition, SNB-19; details: CNS Cancer; also: test concentration or dose not given here
Description: as §1, §2

OVCAR-4 = assay: NCI60 growth inhibition, OVCAR-4; details: Ovarian Cancer; also: test concentration or dose not given here
Description: as §1, §2

UACC-257 = assay: NCI60 growth inhibition, UACC-257; details: Melanoma; also: test concentration or dose not given here
Description: as §1, §2

CCRF-CEM = assay: NCI60 growth inhibition, CCRF-CEM; details: Leukemia
Description: as §1, §2

MCF7 = assay: NCI60 growth inhibition, MCF7; details: Breast Cancer
Description: as §1, §2

SF-268 = assay: NCI60 growth inhibition, SF-268; details: CNS Cancer; also: test concentration or dose not given here
Description: as §1, §2

ACHN = assay: NCI60 growth inhibition, ACHN; details: Renal Cancer
Description: as §1, §2

MOLT-4 = assay: NCI60 growth inhibition, MOLT-4; details: Leukemia
Description: as §1, §2

SK-OV-3 = assay: NCI60 growth inhibition, SK-OV-3; details: Ovarian Cancer
Description: as §1, §2

SK-MEL-2 = assay: NCI60 growth inhibition, SK-MEL-2; details: Melanoma; also: test concentration or dose not given here
Description: as §1, §2

DU-145 = assay: NCI60 growth inhibition, DU-145; details: Prostate Cancer
Description: as §1, §2

KM12 = assay: NCI60 growth inhibition, KM12; details: Colon Cancer; also: test concentration or dose not given here
Description: as §1, §2

MALME-3M = assay: NCI60 growth inhibition, MALME-3M; details: Melanoma
Description: as §1, §2

NCI-H522 = assay: NCI60 growth inhibition, NCI-H522; details: Non-Small Cell Lung Cancer
Description: as §1, §2

A549/ATCC = assay: NCI60 growth inhibition, A549/ATCC; details: Non-Small Cell Lung Cancer
Description: as §1, §2

HCC-2998 = assay: NCI60 growth inhibition, HCC-2998; details: Colon Cancer
Description: as §1, §2

LOX IMVI = assay: NCI60 growth inhibition, LOX IMVI; details: Melanoma
Description: as §1, §2

IGROV1 = assay: NCI60 growth inhibition, IGROV1; details: Ovarian Cancer
Description: as §1, §2

K-562 = assay: NCI60 growth inhibition, K-562; details: Leukemia
Description: as §1, §2

HOP-92 = assay: NCI60 growth inhibition, HOP-92; details: Non-Small Cell Lung Cancer
Description: as §1, §2

NCI/ADR-RES = assay: NCI60 growth inhibition, NCI/ADR-RES; details: Ovarian Cancer
Description: as §1, §2

SNB-75 = assay: NCI60 growth inhibition, SNB-75; details: CNS Cancer; also: test concentration or dose not given here
Description: as §1, §2

SW-620 = assay: NCI60 growth inhibition, SW-620; details: Colon Cancer; also: test concentration or dose not given here
Description: as §1, §2

SF-295 = assay: NCI60 growth inhibition, SF-295; details: CNS Cancer; also: test concentration or dose not given here
Description: as §1, §2

NCI-H322M = assay: NCI60 growth inhibition, NCI-H322M; details: Non-Small Cell Lung Cancer
Description: as §1, §2

OVCAR-3 = assay: NCI60 growth inhibition, OVCAR-3; details: Ovarian Cancer
Description: as §1, §2

NCI-H23 = assay: NCI60 growth inhibition, NCI-H23; details: Non-Small Cell Lung Cancer
Description: as §1, §2

SN12C = assay: NCI60 growth inhibition, SN12C; details: Renal Cancer
Description: as §1, §2

UACC-62 = assay: NCI60 growth inhibition, UACC-62; details: Melanoma; also: test concentration or dose not given here
Description: as §1, §2

MDA-MB-231/ATCC = assay: NCI60 growth inhibition, MDA-MB-231/ATCC; details: Breast Cancer
Description: as §1, §2

RPMI-8226 = assay: NCI60 growth inhibition, RPMI-8226; details: Leukemia
Description: as §1, §2

BT-549 = assay: NCI60 growth inhibition, BT-549; details: Breast Cancer
Description: as §1, §2

PC-3 = assay: NCI60 growth inhibition, PC-3; details: Prostate Cancer
Description: as §1, §2

T-47D = assay: NCI60 growth inhibition, T-47D; details: Breast Cancer
Description: as §1, §2

A498 = assay: NCI60 growth inhibition, A498; details: Renal Cancer; also: test concentration or dose not given here
Description: as §1, §2

OVCAR-5 = assay: NCI60 growth inhibition, OVCAR-5; details: Ovarian Cancer
Description: as §1, §2

NCI-H460 = assay: NCI60 growth inhibition, NCI-H460; details: Non-Small Cell Lung Cancer
Description: as §1, §2

786-0 = assay: NCI60 growth inhibition, 786-0; details: Renal Cancer
Description: as §1, §2

UO-31 = assay: NCI60 growth inhibition, UO-31; details: Renal Cancer
Description: as §1, §2

## O=C1c2cccnc2C(=O)c2nc3cc(N4CCN(C5CC5)CC4)ccc3nc21 [Compound 49, 9-(4-cyclopropylpiperazin-1-yl)pyrido[2,3-b]phenazine-5,12-dione]
SK-MEL-5
  Growth inhibition (% control) GIPRCNT: −98.1218 % control
EKVX
  Growth inhibition (% control) GIPRCNT: 27.37 % control
TK-10
  Growth inhibition (% control) GIPRCNT: 0.1224 % control
HS 578T
  Growth inhibition (% control) GIPRCNT: −36.5499 % control
M14
  Growth inhibition (% control) GIPRCNT: −91.1652 % control
HCT-116
  Growth inhibition (% control) GIPRCNT: 0.8509 % control
COLO 205
  Growth inhibition (% control) GIPRCNT: −68.34 % control
HOP-62
  Growth inhibition (% control) GIPRCNT: −56.64 % control
MDA-MB-468
  Growth inhibition (% control) GIPRCNT: −21.9933 % control
MDA-MB-435
  Growth inhibition (% control) GIPRCNT: −87.4148 % control
HCT-15
  Growth inhibition (% control) GIPRCNT: −58.81 % control
SK-MEL-28
  Growth inhibition (% control) GIPRCNT: −76.8851 % control
U251
  Growth inhibition (% control) GIPRCNT: −32.64 % control
SR
  Growth inhibition (% control) GIPRCNT: −10.03 % control
NCI-H226
  Growth inhibition (% control) GIPRCNT: −49.1 % control
CAKI-1
  Growth inhibition (% control) GIPRCNT: −5.268 % control
HT29
  Growth inhibition (% control) GIPRCNT: −21.31 % control
HL-60(TB)
  Growth inhibition (% control) GIPRCNT: −43.09 % control
SF-539
  Growth inhibition (% control) GIPRCNT: −99.37 % control
SNB-19
  Growth inhibition (% control) GIPRCNT: −81.52 % control
OVCAR-4
  Growth inhibition (% control) GIPRCNT: −87.768 % control
UACC-257
  Growth inhibition (% control) GIPRCNT: −84.4508 % control
CCRF-CEM
  Growth inhibition (% control) GIPRCNT: 26.17 % control
MCF7
  Growth inhibition (% control) GIPRCNT: −56.1231 % control
SF-268
  Growth inhibition (% control) GIPRCNT: 12.46 % control
ACHN
  Growth inhibition (% control) GIPRCNT: −35.0589 % control
MOLT-4
  Growth inhibition (% control) GIPRCNT: 26.2 % control
SK-OV-3
  Growth inhibition (% control) GIPRCNT: −78.6244 % control
SK-MEL-2
  Growth inhibition (% control) GIPRCNT: −16.262 % control
DU-145
  Growth inhibition (% control) GIPRCNT: −75.9298 % control
KM12
  Growth inhibition (% control) GIPRCNT: 9.272 % control
MALME-3M
  Growth inhibition (% control) GIPRCNT: −100 % control
NCI-H522
  Growth inhibition (% control) GIPRCNT: −50.54 % control
A549/ATCC
  Growth inhibition (% control) GIPRCNT: −53.27 % control
HCC-2998
  Growth inhibition (% control) GIPRCNT: −80.83 % control
LOX IMVI
  Growth inhibition (% control) GIPRCNT: −46.5487 % control
IGROV1
  Growth inhibition (% control) GIPRCNT: −13.7639 % control
K-562
  Growth inhibition (% control) GIPRCNT: 0.8659 % control
HOP-92
  Growth inhibition (% control) GIPRCNT: 62.46 % control
NCI/ADR-RES
  Growth inhibition (% control) GIPRCNT: 20.15 % control
SNB-75
  Growth inhibition (% control) GIPRCNT: −64.69 % control
SW-620
  Growth inhibition (% control) GIPRCNT: −37.75 % control
SF-295
  Growth inhibition (% control) GIPRCNT: −88.89 % control
NCI-H322M
  Growth inhibition (% control) GIPRCNT: −96.67 % control
OVCAR-3
  Growth inhibition (% control) GIPRCNT: −1.5625 % control
NCI-H23
  Growth inhibition (% control) GIPRCNT: −56.52 % control
SN12C
  Growth inhibition (% control) GIPRCNT: −94.7287 % control
UACC-62
  Growth inhibition (% control) GIPRCNT: −98.5184 % control
MDA-MB-231/ATCC
  Growth inhibition (% control) GIPRCNT: 15.11 % control
RPMI-8226
  Growth inhibition (% control) GIPRCNT: 25.33 % control
BT-549
  Growth inhibition (% control) GIPRCNT: −93.6913 % control
PC-3
  Growth inhibition (% control) GIPRCNT: 11.58 % control
T-47D
  Growth inhibition (% control) GIPRCNT: 22.46 % control
A498
  Growth inhibition (% control) GIPRCNT: −88.1317 % control
OVCAR-5
  Growth inhibition (% control) GIPRCNT: −82.2933 % control
NCI-H460
  Growth inhibition (% control) GIPRCNT: −54.12 % control
786-0
  Growth inhibition (% control) GIPRCNT: 28.12 % control
UO-31
  Growth inhibition (% control) GIPRCNT: −99.9594 % control
